From patent US8633019B2, “Methods for treating spinal muscular atrophy” (PTC Therapeutics, Inc., priority 2008, dated 2014)

These molecules were tested on inclusion of exon 7 of SMN2 into mRNA transcribed from the SMN2-A minigene (assay: Fold Activation: luciferase reporter, SMN2-A minigene construct versus SMN2-G minigene construct, in stably transfected HEK293H cells). Conditions: ratio of First Activation using the SMN2-A construct divided by Second Activation using the SMN2-G construct.
Assay type: cell-based, human
Source text: In a specific embodiment, the first cell and the second cell are the same cell type. In some embodiments, the first cell and the second cell are the same cell type and are obtained from the same source or clone. In some embodiments, the first reporter gene and the second reporter gene are the same reporter gene. In other embodiments, the first reporter gene and second reporter gene are different reporter genes. A compound that increases the inclusion of exon 7 of SMN2 into mRNA transcribed from the SMN2 gene will result in a Fold Activation derived from a higher ratio of the First Activation:
[formula] [formula] [formula] In some embodiments, both the amount and activity of the first and second fusion proteins are detected. Accordingly, as used herein, the Fold Activation for a compound that modulates the inclusion of exon 7 of SMN2 into mRNA transcribed from the SMN2 gene is a ratio of the First Activation divided by the Second Activation.
The HEK293H cell line stably transfected with the SMN2-A minigene construct was utilized in the HTS. HTS was performed by plating 10,000 cells in each well of a 384-well plate. Each 384-well plate contained 64 control wells used as an internal standard: 16 wells were used as a total control (no test compound, only compound solvent), 16 wells were used as reference standards representing background readings (high inhibitor concentration) and 32 wells were prepared to provide an 8-point dose response curve of puromycin as a non-specific standard control inhibitor. The remaining 320 wells contained individual test compounds. The cells were grown overnight in the presence of test compounds or controls at 37° C. in 5% CO2. After 24 hours, the amount of luminescence was determined using a ViewLux Imaging system (Perkin Elmer).
Using the SMN2-A minigene construct, a HTS was performed testing a compound library. The amount of the fusion protein expressed from the minigene construct was determined by measuring luciferase activity as described herein. […] Enhancers of fusion protein expression were defined as those compounds that increased luciferase activity by at least three standard deviations above the mean. Based on this analysis, test compounds of Formula (I) were identified as hits and were subsequently confirmed by testing the compounds under the same conditions as in the original HTS. To ensure that the increase in luciferase activity detected in the HTS was due to increased inclusion of exon 7 of SMN2 into mRNA transcripts from the SMN2-A minigene construct, each compound was tested in two different cell lines: the cell line, which was used in the original HTS (HEK293H containing the SMN2-A minigene construct), and a HEK293H cell line that contained the SMN2-G minigene construct.
Each compound was tested at four concentrations: 15 μM, 3 μM, 0.6 μM, 0.12 μM.
The Fold Activation results are provided as a ratio of a First Activation using the SMN-2A construct divided by a Second Activation using the SMN-2G construct, wherein 1 star (*) represents active compounds with a fold increase ratio between 1.1-1.3; 2 stars (**) represent active compounds with a fold increase ratio between 1.3-2.0; 3 stars (***) represent active compounds with a fold increase ratio greater than 2.0.
For CCC(C)(C)c1ccc2oc(-c3cccc(C(=O)O)c3)nc2c1 [Cpd 22, 3-[5-(1,1-dimethyl-propyl)-benzooxazol-2-yl]-benzoic acid], the “Activity (Fold Activation)” value was “** (2 stars (**) represent active compounds with a fold increase ratio between 1.3-2.0)”.
With O=C(O)c1ccc2oc(-c3ccc(OC(F)(F)F)cc3)nc2c1 [Cpd 100, 2-(4-trifluoromethoxy-phenyl)-benzooxazole-5-carboxylic acid] the “Activity (Fold Activation)” value was “** (2 stars (**) represent active compounds with a fold increase ratio between 1.3-2.0)”.
With O=C(O)c1cccc(-c2nc3ccc(Oc4ccccc4)cc3o2)c1 [Cpd 82, 3-(6-phenoxy-benzooxazol-2-yl)-benzoic acid] the “Activity (Fold Activation)” value was “** (2 stars (**) represent active compounds with a fold increase ratio between 1.3-2.0)”.
O=C(O)c1ccc2oc(-c3ccc(Br)cc3)nc2c1 [Cpd 35, 2-(4-bromo-phenyl)-benzooxazole-5-carboxylic acid] was tested, and the “Activity (Fold Activation)” value was “** (2 stars (**) represent active compounds with a fold increase ratio between 1.3-2.0)”.
For O=C(O)c1ccc2oc(-c3ccc(N4CCCC4)nc3)nc2c1 [Cpd 89, 2-(6-pyrrolidin-1-yl-pyridin-3-yl)-benzooxazole-5-carboxylic acid], the “Activity (Fold Activation)” value was “*** (3 stars (***) represent active compounds with a fold increase ratio greater than 2.0)”.
With O=C(O)c1ccc2oc(-c3ccc(N4CCCC4=O)cc3)nc2c1 [Cpd 28, 2-[4-(2-oxo-pyrrolidin-1-yl)-phenyl]-benzooxazole-5-carboxylic acid] the “Activity (Fold Activation)” value was “** (2 stars (**) represent active compounds with a fold increase ratio between 1.3-2.0)”.
For CC(C)c1ccc(-c2ccc3oc(-c4cccc(C(=O)O)c4)nc3c2)cc1 [Cpd 36, 3-[5-(4-isopropyl-phenyl)-benzooxazol-2-yl]-benzoic acid], the “Activity (Fold Activation)” value was “** (2 stars (**) represent active compounds with a fold increase ratio between 1.3-2.0)”.
In the case of CN(Cc1ccccc1)c1ccc2nc(-c3cccc(C(=O)O)c3)oc2c1 [Cpd 102, 3-[6-(benzyl-methyl-amino)-benzooxazol-2-yl]-benzoic acid], the “Activity (Fold Activation)” value is reported as “** (2 stars (**) represent active compounds with a fold increase ratio between 1.3-2.0)”.
O=C(O)c1ccc2oc(-c3ccc(N4CCOCC4)nc3)nc2c1 [Cpd 90, 2-(6-morpholin-4-yl-pyridin-3-yl)-benzooxazole-5-carboxylic acid] was tested, and the “Activity (Fold Activation)” value was “** (2 stars (**) represent active compounds with a fold increase ratio between 1.3-2.0)”.
For Cc1cc(-c2nc3ccc(C(=O)O)cc3o2)c(C)o1 [Cpd 67, 2-(2,5-dimethyl-furan-3-yl)-benzooxazole-6-carboxylic acid], the “Activity (Fold Activation)” value was “** (2 stars (**) represent active compounds with a fold increase ratio between 1.3-2.0)”.
In the case of O=C(O)c1cccc(-c2nc3ccc(N4CCOCC4)cc3o2)c1 [Cpd 42, 3-(6-morpholin-4-yl-benzooxazol-2-yl)-benzoic acid], the “Activity (Fold Activation)” value is reported as “** (2 stars (**) represent active compounds with a fold increase ratio between 1.3-2.0)”.
For O=C(O)c1ccc2nc(-c3ccco3)oc2c1 [Cpd 65, 2-furan-2-yl-benzooxazole-6-carboxylic acid], the “Activity (Fold Activation)” value was “** (2 stars (**) represent active compounds with a fold increase ratio between 1.3-2.0)”.
With Cc1cc(-c2nc3cc(C(=O)O)ccc3o2)c(C)o1 [Cpd 77, 2-(2,5-dimethyl-furan-3-yl)-benzooxazole-5-carboxylic acid] the “Activity (Fold Activation)” value was “* (1 star (*) represents active compounds with a fold increase ratio between 1.1-1.3)”.
O=C(O)c1ccc2oc(-c3cccc(OC(F)(F)F)c3)nc2c1 [Cpd 105, 2-(3-trifluoromethoxy-phenyl)-benzooxazole-5-carboxylic acid] was tested, and the “Activity (Fold Activation)” value was “* (1 star (*) represents active compounds with a fold increase ratio between 1.1-1.3)”.
For Cc1ccc2nc(-c3cccc(C(=O)O)c3)oc2c1 [Cpd 2, 3-(6-methyl-benzooxazol-2-yl)-benzoic acid], the “Activity (Fold Activation)” value was “* (1 star (*) represents active compounds with a fold increase ratio between 1.1-1.3)”.
For Cc1ccc(-c2nc3cc(C(=O)O)ccc3o2)cc1 [Cpd 38, 2-p-tolyl-benzooxazole-5-carboxylic acid], the “Activity (Fold Activation)” value was “*** (3 stars (***) represent active compounds with a fold increase ratio greater than 2.0)”.
O=C(O)c1ccc2oc(-c3ccc(F)cc3)nc2c1 [Cpd 55, 2-(4-fluoro-phenyl)-benzooxazole-5-carboxylic acid] was tested, and the “Activity (Fold Activation)” value was “* (1 star (*) represents active compounds with a fold increase ratio between 1.1-1.3)”.
COc1ccc(-c2nc3cc(C(=O)O)ccc3o2)cc1 [Cpd 39, 2-(4-methoxy-phenyl)-benzooxazole-5-carboxylic acid] was tested, and the “Activity (Fold Activation)” value was “** (2 stars (**) represent active compounds with a fold increase ratio between 1.3-2.0)”.
In the case of O=C(O)c1ccc2oc(-c3ccc(-c4ccccc4)cc3)nc2c1 [Cpd 19, 2-biphenyl-4-yl-benzooxazole-5-carboxylic acid], the “Activity (Fold Activation)” value is reported as “** (2 stars (**) represent active compounds with a fold increase ratio between 1.3-2.0)”.
O=C(O)c1ccc2nc(-c3cccnc3)oc2c1 [Cpd 69, 2-pyridin-3-yl-benzooxazole-6-carboxylic acid] was tested, and the “Activity (Fold Activation)” value was “* (1 star (*) represents active compounds with a fold increase ratio between 1.1-1.3)”.
With NC(=O)c1cccc(-c2nc3ccc(N4CCCCC4)cc3o2)c1 [Cpd 110, 3-(6-piperidin-1-yl-benzooxazol-2-yl)-benzamide] the “Activity (Fold Activation)” value was “* (1 star (*) represents active compounds with a fold increase ratio between 1.1-1.3)”.
In the case of O=C(O)c1cccc(-c2nc3cc(-c4ccc(F)c(F)c4)ccc3o2)c1 [Cpd 30, 3-[5-(3,4-difluoro-phenyl)-benzooxazol-2-yl]-benzoic acid], the “Activity (Fold Activation)” value is reported as “** (2 stars (**) represent active compounds with a fold increase ratio between 1.3-2.0)”.
O=C(O)c1ccc2nc(-c3ccccc3F)oc2c1 [Cpd 66, 2-(2-fluoro-phenyl)-benzooxazole-6-carboxylic acid] was tested, and the “Activity (Fold Activation)” value was “*** (3 stars (***) represent active compounds with a fold increase ratio greater than 2.0)”.
COc1ccc2nc(-c3cccc(C(N)=O)c3)oc2c1 [Cpd 111, 3-(6-methoxy-benzooxazol-2-yl)-benzamide] was tested, and the “Activity (Fold Activation)” value was “** (2 stars (**) represent active compounds with a fold increase ratio between 1.3-2.0)”.
O=C(O)c1ccc2oc(-c3ccc(N4CCOCC4)cc3)nc2c1 [Cpd 51, 2-(4-morpholin-4-yl-phenyl)-benzooxazole-5-carboxylic acid] was tested, and the “Activity (Fold Activation)” value was “** (2 stars (**) represent active compounds with a fold increase ratio between 1.3-2.0)”.
In the case of NC(=O)c1cccc(-c2nc3ccc(NCCc4ccccc4)cc3o2)c1 [Cpd 73, 3-(6-phenethylamino-benzooxazol-2-yl)-benzamide], the “Activity (Fold Activation)” value is reported as “* (1 star (*) represents active compounds with a fold increase ratio between 1.1-1.3)”.
For O=C(O)c1ccc2oc(-c3ccc(NCCCCl)cc3)nc2c1 [Cpd 54, 2-[4-(3-chloro-propylamino)-phenyl]-benzooxazole-5-carboxylic acid], the “Activity (Fold Activation)” value was “** (2 stars (**) represent active compounds with a fold increase ratio between 1.3-2.0)”.
In the case of O=C(O)c1cccc(-c2nc3ccc(N4CCCCC4)cc3o2)c1 [Cpd 41, 3-(6-piperidin-1-yl-benzooxazol-2-yl)-benzoic acid], the “Activity (Fold Activation)” value is reported as “*** (3 stars (***) represent active compounds with a fold increase ratio greater than 2.0)”.
O=C(O)c1cccc(-c2nc3cc(-c4cc5ccccc5o4)ccc3o2)c1 [Cpd 31, 3-(5-benzofuran-2-yl-benzooxazol-2-yl)-benzoic acid] was tested, and the “Activity (Fold Activation)” value was “** (2 stars (**) represent active compounds with a fold increase ratio between 1.3-2.0)”.
For O=C(O)c1ccc2oc(-c3ccc4c(c3)OCO4)nc2c1 [Cpd 26, 2-benzo[1,3]dioxol-5-yl-benzooxazole-5-carboxylic acid], the “Activity (Fold Activation)” value was “** (2 stars (**) represent active compounds with a fold increase ratio between 1.3-2.0)”.
